Here are results for 8 molecules from patent US20240376094A2, “SELECTIVE BCL-XL PROTAC COMPOUNDS AND METHODS OF USE” (Les Laboratoires Servier, priority 2021, published 2024).

pIC50: −log10 of the molar value.

Assay type in all cases: cell-based
One experiment deals with MOLT-4 cells. The experiment is described as follows: MOLT-4 cell viability, CTG assay. Particulars: Homo sapiens, MOLT-4, 48 h. Summed up: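 Cells grown in RPMI 1640 with 10% FBS at 37° C, 5% CO2, then exposed to compounds for 48 h (11-point 5-fold dilution, triplicates). ATP measured by CellTiter-Glo luminescence; IC50 from four-parameter fit versus control, mean of ≥2 independent experiments.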

A further experiment has as its target T1, Bcl-xL (Homo sapiens, UniProt Q07817).
T1 construct: Measured levels of Bcl-xL protein of HCT116 cells treated with the tested compounds; host or cells: HCT116
The experiment in a line: HCT116 Bcl-xL degradation, capillary-based immunoassay (WES). Particulars: HCT116, 24 h, 9-point serial dilution. Summed up:
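HCT116 cells treated 24 h with compound at 10/100 nM and/or 9-point dilution (quadruplicates), then lysed. Bcl-xL measured by capillary WES immunoassay, normalized to cofilin and expressed as % of untreated cells. DC50 from four-parameter curve fit.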

In experiment [1] the test system is EBC-1 lung cancer cell line. The experiment is described as follows: EBC-1 cell proliferation, CellTiter-Glo assay. The note with it: Homo sapiens, 120 h; Ebc-1 cell viability, CTG assay, 5 days of treatment; read-out: CTG 5 day Ebc1 GI50. Summed up:
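EBC-1 cells seeded at 1000 per well overnight, then exposed to 10-point dilutions (0.508 nM–10 μM final) for 5 days at 37 °C, in triplicate. ATP luminescence by CellTiter-Glo, normalised to untreated wells; GI50 from four-parameter logistic fit, runs valid only with at least one doubling.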

For the next experiment, the target named is T2, HiBiT-tagged BCL-xL (Homo sapiens, UniProt Q07817).
T2 construct: expressed in transfected cells; host or cells: NCI-H1650 (ATCC No. CRL-5883), engineered HiBiT cell line
The experiment is described as follows: NCI-H1650 BCL-xL protein levels, Nano-Glo HiBiT Lytic Detection. Particulars: NCI-H1650 expressing HiBiT-tagged BCL-xL, overnight incubation, read-out: Bcl-xl HIBIT NCIH1650 DC50. Put shortly:
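NCI-H1650 cells expressing HiBiT-tagged BCL-xL (5000/well) were treated overnight at 37° C with 10 concentrations, final 0.508 nM-10 μM, in triplicate. Remaining BCL-xL measured by Nano-Glo HiBiT lytic luminescence, normalized to untreated cells; 50% values by four-parameter logistic fit.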
For orientation: HiBiT is a short tag that completes a luciferase, so light tracks the accessible tagged protein.

T2 sequence (Q07817 whole entry): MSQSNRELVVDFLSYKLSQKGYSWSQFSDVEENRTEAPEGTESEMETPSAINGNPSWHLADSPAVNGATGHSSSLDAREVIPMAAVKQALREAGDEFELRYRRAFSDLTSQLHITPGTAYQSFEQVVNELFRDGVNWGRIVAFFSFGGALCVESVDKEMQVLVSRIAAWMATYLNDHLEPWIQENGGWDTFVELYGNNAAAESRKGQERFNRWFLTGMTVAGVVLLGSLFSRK
T1 sequence (Q07817 whole entry): as above

As a reminder, the pIC50 is the negative decadic logarithm of the IC50, by convention in mol/L. For orientation: GI50 means the concentration at which growth is held to half of that of the control. Consider `Cc1ncsc1-c1ccc([C@H](C)NC(=O)[C@@H]2C[C@@H](O)CN2C(=O)[C@@H](NC(=O)COCCOCCOCCN(C)CCOC23CC4(C)CC(C)(CC(Cn5ncc(-c6ccc(N7CCCc8c7nnc(Nc7nc9ccccc9s7)c8C)nc6C(=O)O)c5C)(C4)C2)C3)C(C)(C)C)cc1` [Example 113, 6-[3-(1,3-benzothiazol-2-ylamino)-4-methyl-6,7-dihydro-5H-pyrido[2,3-c]pyridazin-8-yl]-3-[1-[[3-[2-[2-[2-[2-[2-[[(1S)-1-[(2S,4R)-4-hydroxy-2-[[(1S)-1-[4-(4-methylthiazol-5-yl)phenyl]ethyl]carbamoyl]pyrrolidine-1-carbonyl]-2,2-dimethyl-propyl]amino]-2-oxo-ethoxy]ethoxy]ethoxy]ethyl-methyl-amino]ethoxy]-5,7-dimethyl-1-adamantyl]methyl]-5-methyl-pyrazol-4-yl]pyridine-2-carboxylic acid], for which the pIC50 in the experiment with MOLT-4 cells is 7.69. Also, the DC50 is more than 316 nM on Bcl-xL and more than 1670 nM at HiBiT-tagged BCL-xL. Also, the GI50 in experiment [1] was determined as 49 nM.

As for `Cc1ncsc1-c1ccc(CNC(=O)[C@@H]2C[C@@H](O)CN2C(=O)[C@@H](NC(=O)C2(F)CC2)C(C)(C)C)c(OCCCCCCCCCCCCCCN(C)CCOC23CC4(C)CC(C)(CC(Cn5ncc(-c6ccc(N7CCCc8c7nnc(Nc7nc9ccccc9s7)c8C)nc6C(=O)O)c5C)(C4)C2)C3)c1` [Example 146, 6-[3-(1,3-benzothiazol-2-ylamino)-4-methyl-6,7-dihydro-5H-pyrido[2,3-c]pyridazin-8-yl]-3-[1-[[3-[2-[14-[2-[[[(2S,4R)-1-[(2S)-2-[(1-fluorocyclopropanecarbonyl)amino]-3,3-dimethyl-butanoyl]-4-hydroxy-pyrrolidine-2-carbonyl]amino]methyl]-5-(4-methylthiazol-5-yl)phenoxy]tetradecyl-methyl-amino]ethoxy]-5,7-dimethyl-1-adamantyl]methyl]-5-methyl-pyrazol-4-yl]pyridine-2-carboxylic acid], the pIC50 with MOLT-4 cells is 8.52. Further, the values for the DC50 at Bcl-xL and on HiBiT-tagged BCL-xL were 0.986 nM and more than 1670 nM, respectively. The GI50 in experiment [1] came to 3 nM.

Turning to `Cc1ncsc1-c1ccc([C@H](C)NC(=O)[C@@H]2C[C@@H](O)CN2C(=O)[C@@H](NC(=O)CCCCCCCCCCCCCN(C)CCOC23CC4(C)CC(C)(CC(Cn5ncc(-c6ccc(N7CCCc8c7nnc(Nc7nc9ccccc9s7)c8C)nc6C(=O)N(C)C)c5C)(C4)C2)C3)C(C)(C)C)cc1` [Example 148, 6-[3-(1,3-benzothiazol-2-ylamino)-4-methyl-6,7-dihydro-5H-pyrido[2,3-c]pyridazin-8-yl]-3-[1-[[3-[2-[[14-[[(1S)-1-[(2S,4R)-4-hydroxy-2-[[(1S)-1-[4-(4-methylthiazol-5-yl)phenyl]ethyl]carbamoyl]pyrrolidine-1-carbonyl]-2,2-dimethyl-propyl]amino]-14-oxo-tetradecyl]-methyl-amino]ethoxy]-5,7-dimethyl-1-adamantyl]methyl]-5-methyl-pyrazol-4-yl]-N,N-dimethyl-pyridine-2-carboxamide], the pIC50 in the experiment with MOLT-4 cells is 8.35. The DC50 on Bcl-xL was 1.37 nM; on HiBiT-tagged BCL-xL, 1 nM. For the same molecule, the GI50 in experiment [1] stood at 7 nM.

For `CNC(=O)c1nc(N2CCCc3c2nnc(Nc2nc4ccccc4s2)c3C)ccc1-c1cnn(CC23CC4(C)CC(C)(C2)CC(OCCN(C)CCCCCCCCCCCCCC(=O)N[C@H](C(=O)N2C[C@H](O)C[C@H]2C(=O)N[C@@H](C)c2ccc(-c5scnc5C)cc2)C(C)(C)C)(C4)C3)c1C` [Example 156, 6-[3-(1,3-benzothiazol-2-ylamino)-4-methyl-6,7-dihydro-5H-pyrido[2,3-c]pyridazin-8-yl]-3-[1-[[3-[2-[[14-[[(1S)-1-[(2S,4R)-4-hydroxy-2-[[(1S)-1-[4-(4-methylthiazol-5-yl)phenyl]ethyl]carbamoyl]pyrrolidine-1-carbonyl]-2,2-dimethyl-propyl]amino]-14-oxo-tetradecyl]-methyl-amino]ethoxy]-5,7-dimethyl-1-adamantyl]methyl]-5-methyl-pyrazol-4-yl]-N-methyl-pyridine-2-carboxamide], in the experiment on MOLT-4 cells, the pIC50 was 8.19. Further, the DC50 turned out to be 14.5 nM on Bcl-xL and 228 nM at HiBiT-tagged BCL-xL. Further, the GI50 in experiment [1] was found to be 27 nM.

Consider `Cc1ncsc1-c1ccc(CNC(=O)[C@@H]2C[C@@H](O)CN2C(=O)[C@@H](NC(=O)C2(F)CC2)C(C)(C)SCCCCCCCCCCCN(C)CCOC23CC4(C)CC(C)(CC(Cn5ncc(-c6ccc(N7CCCc8c7nnc(Nc7nc9ccccc9s7)c8C)nc6C(=O)O)c5C)(C4)C2)C3)cc1` [Example 117, 6-[3-(1,3-benzothiazol-2-ylamino)-4-methyl-6,7-dihydro-5H-pyrido[2,3-c]pyridazin-8-yl]-3-[1-[[3-[2-[11-[(2R)-2-[(1-fluorocyclopropanecarbonyl)amino]-3-[(2S,4R)-4-hydroxy-2-[[4-(4-methylthiazol-5-yl)phenyl]methylcarbamoyl]pyrrolidin-1-yl]-1,1-dimethyl-3-oxo-propyl]sulfanylundecyl-methyl-amino]ethoxy]-5,7-dimethyl-1-adamantyl]methyl]-5-methyl-pyrazol-4-yl]pyridine-2-carboxylic acid], for which the pIC50 in the experiment with MOLT-4 cells is 8.08. Further, the DC50 was 1.17 nM at Bcl-xL and more than 1670 nM at HiBiT-tagged BCL-xL. Also, the GI50 in experiment [1] worked out at 89 nM.

For the molecule `Cc1ncsc1-c1ccc(CNC(=O)[C@@H]2C[C@@H](O)CN2C(=O)[C@@H](NC(=O)C2(F)CC2)C(C)(C)C)c(OCCCCCCCCCCCCCCCCN(C)CCOC23CC4(C)CC(C)(CC(Cn5ncc(-c6ccc(N7CCCc8c7nnc(Nc7nc9ccccc9s7)c8C)nc6C(=O)O)c5C)(C4)C2)C3)c1` [Example 77, 6-[3-(1,3-benzothiazol-2-ylamino)-4-methyl-6,7-dihydro-5H-pyrido[2,3-c]pyridazin-8-yl]-3-[1-[[3-[2-[16-[2-[[[(2S,4R)-1-[(2S)-2-[(1-fluorocyclopropanecarbonyl)amino]-3,3-dimethyl-butanoyl]-4-hydroxy-pyrrolidine-2-carbonyl]amino]methyl]-5-(4-methylthiazol-5-yl)phenoxy]hexadecyl-methyl-amino]ethoxy]-5,7-dimethyl-1-adamantyl]methyl]-5-methyl-pyrazol-4-yl]pyridine-2-carboxylic acid], the pIC50 in the experiment on MOLT-4 cells is 8.34. For the same molecule, the DC50 on Bcl-xL is more than 316 nM; at HiBiT-tagged BCL-xL, more than 1670 nM. Moreover, the GI50 in experiment [1] came out at 167 nM.

Turning to `Cc1ncsc1-c1ccc([C@H](C)NC(=O)[C@@H]2C[C@@H](O)CN2C(=O)[C@@H](NC(=O)CCCCCCCCNC(=O)c2nc(N3CCCc4c3nnc(Nc3nc5ccccc5s3)c4C)ccc2-c2cnn(C[C@]34C[C@]5(C)C[C@](C)(C3)C[C@@](OCCN3CCCC3)(C5)C4)c2C)C(C)(C)C)cc1` [Example 124, 6-[3-(1,3-benzothiazol-2-ylamino)-4-methyl-6,7-dihydro-5H-pyrido[2,3-c]pyridazin-8-yl]-3-[1-[[3,5-dimethyl-7-(2-pyrrolidin-1-ylethoxy)-1-adamantyl]methyl]-5-methyl-pyrazol-4-yl]-N-[9-[[(1S)-1-[(2S,4R)-4-hydroxy-2-[[(1S)-1-[4-(4-methylthiazol-5-yl)phenyl]ethyl]carbamoyl]pyrrolidine-1-carbonyl]-2,2-dimethyl-propyl]amino]-9-oxo-nonyl]pyridine-2-carboxamide], the pIC50 with MOLT-4 cells is 8.43. Also, the DC50 on Bcl-xL was found to be 1.01 nM; on HiBiT-tagged BCL-xL, 1 nM. In experiment [1], the GI50 amounted to 25 nM.

`Cc1ncsc1-c1ccc([C@H](C)NC(=O)[C@@H]2C[C@@H](O)CN2C(=O)[C@@H](NC(=O)CCCCCCCCCN2CCN(CC#Cc3ccc(OCCCc4sc(N5CCCc6c5nnc(Nc5nc7ccccc7s5)c6C)nc4C(=O)O)c(F)c3)CC2)C(C)(C)C)cc1` [Example 134, 2-[3-(1,3-benzothiazol-2-ylamino)-4-methyl-6,7-dihydro-5H-pyrido[2,3-c]pyridazin-8-yl]-5-[3-[2-fluoro-4-[3-[4-[10-[[(1S)-1-[(2S,4R)-4-hydroxy-2-[[(1S)-1-[4-(4-methylthiazol-5-yl)phenyl]ethyl]carbamoyl]pyrrolidine-1-carbonyl]-2,2-dimethyl-propyl]amino]-10-oxo-decyl]piperazin-1-yl]prop-1-ynyl]phenoxy]propyl]thiazole-4-carboxylic acid] showed a pIC50 with MOLT-4 cells of 8.14. Further, the DC50 at Bcl-xL came to 0.564 nM; at HiBiT-tagged BCL-xL it was 1 nM. The GI50 in experiment [1] came to 2 nM.
